Test results published in ChEMBL document CHEMBL4613212, “Insights of synthetic analogues of anti-leprosy agents” (Bioorg Med Chem, 2019).

What was measured:
Mycobacterium leprae [1] = assay: Anti-leprotic activity against Mycobacterium leprae infected in BALB/c mouse assessed as time delay in bacterial multiplication in footpad at 0.008 g/100g of diet administered via feed starting 60 or 75 day post infection up to 90 days by Shepard's kinetic method; type: functional
Monocyte [2] = assay: Antiinflammatory activity in human monocytes assessed as inhibition of LPS-induced TNFaplha production preincubated for 15 mins followed by LPS addition and measured after 4 hrs by ELISA; type: functional, cell-based
[3] = Cytotoxicity against LPS-induced human monocytes assessed as cell viability at 50 uM by tryphan blue staining based assay relative to control; design: species or system Monocyte; details: read-out: Activity
Monocyte [4] = assay: Antiinflammatory activity in human monocytes assessed as inhibition of LPS-induced TNFaplha production at 50 uM preincubated for 15 mins followed by LPS addition and measured after 4 hrs by ELISA relative to control; type: functional
Mycobacterium leprae [5] = assay: Anti-leprotic activity against Mycobacterium leprae infected in BALB/c mouse assessed as time delay in bacterial multiplication in footpad at 0.011 g/100g of diet administered via feed starting 60 or 75 day post infection up to 90 days by Shepard's kinetic method; type: functional
[6] = test system: Mycobacterium tuberculosis; assay: Antimycobacterial activity against Mycobacterium tuberculosis H37Rv infected in CF-1 mouse assessed as change in survival time at 16 mg/kg administrated daily for 14 days with food relative to control; type: functional
[7] = test system: Mycobacterium tuberculosis; assay: Antimycobacterial activity against Mycobacterium tuberculosis H37Rv infected in CF-1 mouse assessed as change in survival time at 9 mg/kg administrated daily for 14 days with food relative to control; type: functional
[8] = test system: Mycobacterium tuberculosis; assay: Antimycobacterial activity against Mycobacterium tuberculosis H37Rv infected in CF-1 mouse assessed as change in survival time at 2 mg/kg administrated daily for 14 days with food relative to control; type: functional
[9] = test system: Mycobacterium tuberculosis; assay: Antimycobacterial activity against Mycobacterium tuberculosis H37Rv infected in CF-1 mouse assessed as change in survival time at 5 mg/kg administrated daily for 14 days with food relative to control; type: functional

SMILES: Nc1ccc(Cc2ccc(N)cc2)cc1
- Time (Mycobacterium leprae [1]): <10 days

SMILES: CCC1(N2C(=O)c3cccc([N+](=O)[O-])c3C2=O)C(=O)NC(=O)N(c2ccccc2)C1=O (centres undefined)
- IC50 (Monocyte [2]): 3 mM
- viability at 50 µM [3]: 77%
- inhibition at 50 µM (Monocyte [4]): < 10%

SMILES: CC(=O)Nc1ccc(S(=O)(=O)c2ccc(NC(C)=O)cc2O)cc1
- Time (Mycobacterium leprae [5]): 126 days

SMILES: Clc1ccc(/N=N/c2ccc(NCCCN3CCCCC3)c3c2CCCC3)cc1
- MST [6]: 78 days
- MST [7]: 42 days
- MST [8]: 11 days
- MST [9]: 33 days
